Data as given in patent US7985774B2, “Use of 3,5-seco-4-nor-cholestane derivatives for obtaining a cytoprotective drug” (Trophos, priority 2006, dated 2011).

Columns and labels:
C57BL6 mice = assay: In vivo model of myocardium infarction (coronary occlusion-reperfusion)
Description: The purpose of this experiment is to study in vivo the cardioprotective properties of the compounds, 3,5-seco-4-nor-cholestan-5-one oxime-3-ol and 3,5-seco-4-nor-cholestan-5-one oxime-3-N,N-dimethylglycine ester, in a murine coronary occlusion-reperfusion model.
The compounds to be tested are administered intravenously in mice, 5 minutes before reperfusion of the myocardium ischemiated beforehand. As controls, carriers of the compounds beta-cyclodextrin (hereafter called βCD) and water, respectively, are administered under the same conditions as for the compounds.
In order to determine the effect of the tested compounds, the size of the infarction is measured after 24 hour reperfusion.
6-8 week old male C57BL6 mice are anaesthetized with sodium pentobarbital (50 mg/kg i.p.) and are ventilated after intubation with an O2/CO2 (95%/5%) mixture throughout the experiment. The surface electrocardiogram (ECG) is recorded and viewed on an oscilloscope all along surgery. Under strict asepsis conditions, the jugular vein is catheterized for intravenous administration of the compounds. A left lateral thoracotomy is performed and after pericardiotomy, a major branch of the left coronary artery is localized in the latero-posterior region of the left ventricle. A prolene no. 8 suture is positioned around this artery so as to form a mobile loop for making a temporary coronary occlusion.
All the mice were subject to a 30 minute temporary coronary occlusion. Ischemia of the myocardium region is confirmed by cyanosis of the myocardium surface and a deviation of the ST segment of the electrocardiogram.
Each of the compounds (treated group, n=10) or its solvent (control group, n=10) was administered as a bolus intravenously, 5 min before lifting the 30 minutes of coronary occlusion.
3,5-seco-4-nor-cholestan-5-one oxime-3-ol, dissolved beforehand to a final concentration of 0.46 mg/ml in a 30% βCD solution in phosphate buffer prepared by saturation followed by centrifugation, is administered at a dosage of 1 mg/kg.
3,5-seco-4-nor-cholestan-5-one oxime-3-N,N-dimethylglycine ester, dissolved beforehand to a final concentration of 1.56 mg/ml in sterile water by stirring and sonication, is administered at a dosage of 3.9 mg/kg.
The same volume of carrier is administered in the corresponding control groups.
Twenty four hours after the end of coronary occlusion, the mice are re-anaesthetized with sodium pentobarbital (50 mg/kg i.p.) and heparin is administered intravenously (Choay© heparin 1,000 IU/kg). A ligature of the coronary artery is achieved at the same location having been subject to the first occlusion 24 h previously. The mice are then euthanized with a lethal saturated dose of potassium chloride and their heart is rapidly excised and then mounted through the aorta artery on a retrograde perfusion system of the Langendorff type.
A 5% Evans blue solution is perfused retrogradely so that the healthy myocardium is colored in blue; the area made ischemic during the coronary occlusion, or <<area of risk AR>> remaining uncolored by default.
The left ventricle is then cut out into 5 slices with equal thicknesses (1 mm) by means of a slicer specially designed for hearts of mice (Les Isolants de Paris, Palaiseau), which are then weighed.
These slices are incubated in a 1% triphenyltetrazolium chloride solution (TTC, Sigma, Poole, UK) at pH 7.4 for 20 min at 37° C. and then set in 4% formol. TTC has the property of coloring the non-infarcted myocardium in red, and so showing the infarcted areas in white. Each heart slice is placed under a stereo microscope for taking a high definition digital photograph.
Quantification of infarction and the area of risk is carried out by planimetry (Scion Image, Scion, Frederick Md., USA) and referred to the weight of each slice.
The area of risk (non-blue area) is expressed as a percentage of the weight of the left ventricle. The infarction sizes are expressed as a percentage of the weight of the area of risk. […]

[1] = tested on: rabbit ventricular cardiomyocytes; assay: Contractile dysfunction test induced by doxorubicin (sarcomer shortening); assay type: cell-based; conditions: doxorubicin 1 μM alone, after 4 hrs of exposure; control −19.49±2.06%
Description: A stock solution of 3,5-seco-4-nor-cholestan-5-one oxime-3-ol at a concentration of 10 mM in 100% DMSO was used.
The final concentration in DMSO was the same for all the experimental points, independently of the molecular concentrations used.
3,5-seco-4-nor-cholestan-5-one oxime-3-ol was tested at concentrations of 0.1 and 0.3 μM, diluted in a Tyrode solution (composition in mmol/L: NaCl 135, KCl 5.4, NaH2PO4 0.33, CaCl2 1.2, MgCl2 1.0, Hepes 10; pH adjusted to 7.4 with NaOH).
Isolated ventricular cells are obtained from hearts of male New Zealand rabbits as described in A. d'Anglemont de Tassigny et al., Fund. Clin. Pharmacol, 18: 531-38, 2004. Briefly, the rabbits (2.0-2.5 kg) are anaesthetized with a pentobarbital solution (50 mg/kg) and they then receive heparin (200 IU/kg). The hearts are excised and immediately perfused, for 10-15 minutes by means of a Langendorff apparatus without recirculation with an oxygenated tyrode (calcium-free) isotonic solution (95%, 2-5% CO2) (in mM: NaCl 135, KCl 5.4, Na2PO4 0.33, MgCl2 1.0, HEPES 10, pH adjusted to 7.4 with 1N NaOH at 37° C., 280-300 mOsmol/kgH2O). […]
The myocytes were selected for the study according to the following criterion: a rod-like aspect with very apparent striations and no intracellular vacuola, no spontaneous contraction when they are stimulated with 1 mM Ca^2+, and with constant rest length and contraction amplitude. The length of the sarcomers was measured by means of a video image analysis program and the data were acquired at a rate of 240 samples/s. […]
(§1) Apoptosis is induced in isolated cardiomyocytes by 3-8 hour exposure to 1 μM of doxorubicin added into an isotonic solution containing (in mM) NaCl 110, KCl 5.4, Na2PO4 0.33, NaHCO3 25, glucose 5, MgCl2 0.8, CaCl2 1, pH adjusted to 7.4. […] The contractility of cardiomyocytes was measured every hour during the 8 hrs of exposure to doxorubicin. […]

[2] = tested on: rabbit ventricular cardiomyocytes; assay: Annexin V marking of phosphatidylserine (apoptosis) after doxorubicin; assay type: cell-based; conditions: doxorubicin 1 μM alone, 3 hrs; control 100%
Description: (§2) Isolated ventricular cells are obtained from hearts of male New Zealand rabbits as described in A. d'Anglemont de Tassigny et al., Fund. Clin. Pharmacol, 18: 531-38, 2004. Briefly, the rabbits (2.0-2.5 kg) are anaesthetized with a pentobarbital solution (50 mg/kg) and they then receive heparin (200 IU/kg). The hearts are excised and immediately perfused, for 10-15 minutes by means of a Langendorff apparatus without recirculation with an oxygenated tyrode (calcium-free) isotonic solution (95%, 2-5% CO2) (in mM: NaCl 135, KCl 5.4, Na2PO4 0.33, MgCl2 1.0, HEPES 10, pH adjusted to 7.4 with 1N NaOH at 37° C., 280-300 mOsmol/kgH2O). Next, all the hearts are perfused for 3 minutes in the “recirculation” mode with the same calcium-free Tyrode solution (coronary flow rate, 10-15 mL/min) added with 1 mg/mL of type II collagenase and 0.28 mg/mL of XIV type protease. Finally, all the hearts are perfused in a mode without any recirculation with the same solution of Tyrode supplemented with 0.3 mM of CaCl2 for 10 min. The left ventricle is removed and cut into small pieces; cell dissociation is achieved by mild mechanical stirring. Extracellular calcium is added by increments every 15 minutes, in order to reach a physiological concentration of 1.0 mM. […]
Annexin V marking of phosphatidylserine was used as a quantitative method for measuring apoptosis by using the MiniMacs cell isolation kit (Miltenyi Biotec, Bergisch, Gladbach, Germany). […] The column is removed from the magnetic field, the cells exposing phosphatidylserine, magnetically retained, are eluted as a positive fraction and counted with a Mallassez cell counter. […]
as §1

caspase-3 = assay: Caspase-3 activity (apoptosis) after doxorubicin; assay type: cell-based, rabbit; conditions: doxorubicin 1 μM alone, 8 hrs; control 19±9
Description: as §2
Caspase-3 activity is used as a quantitative method for measuring apoptosis. […] The fluorogenic substrate for measuring caspase-3 activity (DEVD) is marked with the fluorochrome, 7-amino-4-methyl coumarine (AMC), which produces […] fluorescence detectable in UV light at 360/460 nm for 210 min. […]
as §1

[3] = 3.9 mg/kg i.v. bolus in water 5 min before reperfusion, 30 min occlusion, 24 h reperfusion, mean±SEM

CC(C)CCC[C@@H](C)[C@H]1CC[C@H]2[C@@H]3CCC(=NO)[C@](C)(CCCOC(=O)CN(C)C)[C@H]3CC[C@]12C [3,5-seco-4-nor-cholestan-5-one oxime-3-N,N-dimethylglycine ester]
Area of risk (percentage of the weight of the left ventricle) (C57BL6 mice; [3]): 8 +/− 3% | Infarction size (percentage of the weight of the area of risk) (C57BL6 mice; [3]): 23 +/− 9% | Infarction size reduction (C57BL6 mice; 3.9 mg/kg i.v., versus carrier (water)): 42.5%

COc1cccc2c1C(=O)c1c(O)c3c(c(O)c1C2=O)C[C@@](O)(C(=O)CO)C[C@@H]3O[C@H]1C[C@H](N)[C@H](O)[C@H](C)O1 [doxorubicin, reference compound]
shortening of the peak relatively to the base line [1]: −53.20±7.70% | Apoptosis as % of change in annexin V marking [2]: 320% | caspase-3 activity (caspase-3): 120 ± 15 fmol/min
